In brackets after ≈: the same amount, converted by molar mass. Read-outs that look alike come from different tables or passages of the source.
Legend:
souris = test: Acute toxicity (mortality, LD50) in mice; type: in vivo; conditions: mouse
[1] = molecular target: oreillettes droites de cobaye (Cavia porcellus, UniProt P47747); test: Anti-H2 activity: histamine-induced chronotropic effect on unstimulated guinea pig right atria
[2] = system: segments isolés d'iléon de cobaye; test: Antihistamine activity: histamine-induced contraction of isolated guinea pig ileum; conditions: 50 microg/ml, response induced by 0,5 microg/ml histamine
Text: L'activité antihistaminique a été appréciée in vitro par l'inhibition de la réponse contractile de segments isolés d'iléon de cobaye induite par 0,5 microg/ml d'histamine.

[3] = system: rat Wistar soumis à une surcharge saline; test: Diuretic activity in selected Wistar rats given a saline overload (modified Wiebelhaus test); type: in vivo
How it was run: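 Selected Wistar rats under saline overload (modified Wiebelhaus test) received compound at 20 mg/kg. Urine volume and sodium excretion were measured over 6 h, expressed as % increase, with Na/K ratio also assessed.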

[4] = system: rat soumis à une surcharge hydrique; test: Diuretic activity in rats given a water overload, oral; type: in vivo; conditions: rat, water overload, oral
How it was run: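 Oral dosing (5–80 mg/kg) to rats under water overload, or to rats and mice under saline overload. Urine volume and excreted sodium and potassium measured over 6 h, expressed as change versus control animals; Na/K ratio also derived.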

[5] = system: oedème induit par l'injection intraplantaire de carragénine chez le rat; test: Anti-inflammatory activity: carrageenan paw oedema in rats; type: in vivo; conditions: oral 1 h before carrageenan, measured 3 h after, dose 10b mg/kg [sic]
Experimental: L'activité antiinflammatoire a été déterminée chez le rat par la mesure de l'inhibition de l'oedème induit par l'injection intraplantaire de 0,1 ml d'une suspension à 1% de carragénine chez le rat. Les produits à tester sont administrés par voie orale lh avant l'injection de carragénine et la mesure est réalisée 3h après cette injection. Les COR3789, COR3792, COR4003, COR4008 et COR4010 administrés à 10b mg/kg entrainent respectivement 43, 42, 41, 38 et 39% d'inhibition. Administré à 200 mg/kg, le COR3773 entraine 53% d'inhibition. L'aspirine administrée dans les mêmes conditions à 150 mg/kg entraine 40% d'inhibition de l'oedème.

[6] = system: segments d'iléon de cobaye isolés; test: Anticholinergic activity: acetylcholine-induced contractions of isolated guinea pig ileum; conditions: Cavia porcellus; contractions induced by 0,1 microg/ml acetylcholine; read-out: concentration qui inhibe ces contractions de 80%
Text: L'activité anticholinergique a été appréciée par la mesure des contractions induites par 0,1 microg/ml d'acétylcholine sur des segments d'iléon de cobaye isolés. Les COR3760, COR3789, COR3792, COR4003, COR4008, COR4010, COR4014 utilisés respectivement aux concentrations de 50, 25, 25, 50, 25, 10, 25 microg/ml inhibent ces contractions de 80%.

[7] = system: poumon de cobaye isolé perfusé; test: Bronchodilator activity: isolated perfused guinea pig lung contracted by methacholine; conditions: flow of Tyrode solution, lung contracted by 0,05 microg/ml methacholine; read-out: concentration qui augmente ce débit de 50%

oreillettes droites de cobaye, sequence (P47747 whole entry): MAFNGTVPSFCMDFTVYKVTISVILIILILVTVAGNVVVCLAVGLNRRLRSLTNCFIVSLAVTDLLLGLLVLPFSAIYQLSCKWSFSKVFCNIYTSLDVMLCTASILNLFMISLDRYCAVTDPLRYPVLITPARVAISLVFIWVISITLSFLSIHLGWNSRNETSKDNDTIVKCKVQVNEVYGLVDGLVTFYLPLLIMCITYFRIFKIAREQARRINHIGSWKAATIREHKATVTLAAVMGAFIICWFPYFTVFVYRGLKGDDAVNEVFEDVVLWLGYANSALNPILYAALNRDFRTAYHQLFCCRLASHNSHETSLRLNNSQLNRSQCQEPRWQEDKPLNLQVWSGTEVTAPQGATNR

## CCC(NC)=C1C(=O)c2ccccc2C1=O [COR4003, (Méthylamino-1 propylidényl)-2 indanedione-1,3]
souris; intraperitoneal, 200 mg/kg
  mortalité: aucune mortalité
souris; oral, 300 mg/kg
  mortalité: aucune mortalité
[1]; at the concentration inhibiting the histamine effect by 50 % (COR4003 100, COR4011 50 microg/ml)
  effet chronotrope négatif intrinsèque: ne présentant pas d'effet chronotrope négatif intrinsèque
[1]; chronotropic effect induced by 5 microg/ml histamine, read-out: concentration qui inhibe de 50 % cet effet chronotrope (converted)
  IC50: 465 µM
[2]
  inhibition de la réponse contractile: inhibe cette réponse
[3]; 6 h, read-out: augmentation de l'excrétion urinaire volumétrique mesurée au bout de 6 heures
  change in vivo at 20 mg/kg: 56%
[3]; read-out: augmentation de l'excrétion urinaire du sodium
  change in vivo at 20 mg/kg: 56%
[4]; 10 mg/kg
  facteur multipliant l'excrétion sodique: 2,4
[4]; 20 mg/kg, read-out: facteur multipliant l'excrétion urinaire du sodium
  response vs control in vivo at 20 mg/kg: 720%
[5]
  inhibition de l'oedème: 41%
[6]
  IC80: 50 mg/L (≈ 232 µM)
[7]
  EC50: 10 mg/L (≈ 46.5 µM)
